# Laboratory results as given in paper PMC11313180 (International Journal of Molecular Sciences, 2024).
# Read-outs that look alike come from different tables or passages of the source.
# Experiments:
# MCF-7 [1] = experiment: MTT cell viability assay, MCF-7; type: cell-based, human; details: for IC50: Homo sapiens
# Procedure: (§1) MTT assays were performed as previously described. […] After incubation time, medium was replaced by MTT (solution of 5 mg/mL 3-(4,5-dimethylthiazol-2-yl)-2,5-diphenyl-tetrazoliumbromidin in phosphate buffered saline, Serva, Heidelberg, Germany).
# T47D [2] = experiment: MTT cell viability assay, T47D; type: cell-based, human; details: for IC50: Homo sapiens, T47D
# Procedure: as §1
# MDA-MB-231 = experiment: MTT cell viability assay, MDA-MB-231; type: cell-based, human; details: for IC50: Homo sapiens
# Procedure: MTT assays were performed as previously described. Cell numbers plated differed depending on each incubation time: MDA-MB-231 5000 c/w, MCF-7 5000 c/w (72 h) and 3000 c/w (120 h), T-47D 10,000 c/w (72 h) and 5000 c/w /120 h). After incubation time, medium was replaced by MTT (solution of 5 mg/mL 3-(4,5-dimethylthiazol-2-yl)-2,5-diphenyl-tetrazoliumbromidin in phosphate buffered saline, Serva, Heidelberg, Germany). After 10 min (MCF-7), 20 min (MDA-MB-231), and 30 min (T47D) and dissolving in DMSO (VWR, Langenfeld, Germany), absorbance was measured at 544 nm and 690 nm in a FLUOstar microplate reader (BMG LabTech, Offenburg, Germany).
# MCF-7 [3] = experiment: Cell proliferation by counting Hoechst 33342-stained nuclei, MCF-7; type: cell-based, human; details: 1 µM, 72 h
# Procedure: (§2) Figure 3 Cell proliferation of MCF-7 (a) and T47D cells (b) measured via Hoechst 33342 staining. […] Shown is one representative experiment out of a series of at least three experiments each performed with 3 replicates. Data are mean ± SD. Statistical comparison was performed using a t-test. Levels of significance: ** (p ≤ 0.01); **** (p ≤ 0.0001). Exe = exemestane. (R)-LA = (R)-α-lipoic acid.
# T47D [4] = experiment: Cell proliferation by counting Hoechst 33342-stained nuclei, T47D; type: cell-based, human; details: 1 µM, 72 h
# Procedure: as §2
# MCF-7 [5] = experiment: Long-term (10 days) live/dead proliferation assay, calcein AM and Hoechst 33342, MCF-7; type: cell-based, human; details: 1 µM exemestane, 1 mM (R)-α-lipoic acid
# Procedure: (§3) Cells were seeded on day one in 96-well plates. […] Then, cells were stained with calcein AM (Millipore Corporation, Billerica, MA, USA) and Hoechst 33342 (Tocris Bioscience, Bristol, UK) for 30 min and fluorescence images monitored by Leica DMi8 Thunder Imager (Leica Microsystems CMS GmbH, Wetzlar, Germany). Five images per well were monitored randomly. Calcein AM- and Hoechst 33342-stained area of the images (i.e., live proliferating cells) were evaluated.
# T47D [6] = experiment: Long-term (10 days) live/dead proliferation assay, calcein AM and Hoechst 33342, T47D; type: cell-based, human; details: 1 µM exemestane, 1 mM (R)-α-lipoic acid
# Procedure: as §3
# [7] = test system: caspase 3/7 in MCF-7 cells; experiment: Caspase 3/7 activation assay, MCF-7; type: cell-based, human; details: 24 h; 1 µM exemestane, 0.5 mM or 1 mM (R)-α-lipoic acid
# Procedure: (§4) To analyze the compound-induced activation of capases 3 and 7, the CellEvent caspase 3/7 green detection reagent (Thermo Scientific, Wesel, Germany) was used according to the manufacturer’s instructions. […] After 24 h incubation, medium was removed, and cells were stained with 50 µL of CellEvent caspase 3/7 green detection reagent (2 µM in PBS supplemented with 5% heat-inactivated FBS). Cells were incubated for 30 min at 37 °C in a humidified incubator before imaging by using the Thermo Fisher ArrayScan XTI high content screening (HCS) system with a 10× magnification (Thermo Scientific). Hoechst 33342 was added for nuclei staining.
# [8] = test system: caspase 3/7 in T47D cells; experiment: Caspase 3/7 activation assay, T47D; type: cell-based, human; details: 24 h; 1 µM exemestane, 0.5 mM or 1 mM (R)-α-lipoic acid
# Procedure: as §4
# MCF-7 [9] = experiment: Immunoblotting, MCF-7; type: cell-based, human; details: 48 h; 1 mM (R)-α-lipoic acid, 1 µM exemestane
# Procedure: (§5) A quantity of 20 or 40 µg of total protein as well as, from PageRuler Prestained Protein Ladder, 10–180 kDA (Thermo Scientific, Wesel, Germany), were resolved by SDS-Page (12% polyacrylamide gel) and transferred to polyvinylidene fluoride membrane (Millipore Corporation, Billerica, MA, USA). Blots were incubated with primary antibodies against acetylated a -tubulin (Cat. No. sc-23950), a -tubulin (Cat. No. sc-8035) (Santa Cruz Biotechnology, Heidelberg, Germany), acetyl histone h3 (Cat. No. 39140) and histone H3 (Cat. No. NB100-1669), ß-actine (Cat. No. sc-47778), p21 (AF1047), c-myk (Cat. No. MAB3696), APAF1 (Cat. No. MAB868), BIM (Cat. No. NBP1-76936), FOXO1 (Cat. No. C29H4), BCL-2 (Cat. No. AF810), and survivin (Cat. No. AF886). After another one-hour incubation with the appropriate HRP-conjugated secondary antibody, proteins were visualized by Intas Imager (Intas, Göttingen, Germany) using luminol reagent (Santa Cruz Biotechnology, Heidelberg, Germany).
# T47D [10] = experiment: Immunoblotting, T47D; type: cell-based, human; details: 48 h; 1 mM (R)-α-lipoic acid, 1 µM exemestane
# Procedure: as §5
# MCF-7 cells = test system: MCF-7 cells; design: method as in PMID 25738757; details: ref [30]; read-out: IC50 in MCF-7 cells, literature; cited from earlier work
compound,measurement,setting,value
C=C1C[C@@H]2[C@H](CC[C@]3(C)C(=O)CC[C@@H]23)[C@@]2(C)C=CC(=O)C=C12 [exemestane],"inhibition of cell viability, MCF-7","MCF-7 [1]; 1 µM alone, 120 h MTT",10.2%
same,"increase in potency by prolongation of incubation time, MCF-7",MCF-7 [1]; 120 h versus 72 h MTT,1.8 fold
same,IC50,"MCF-7 [1]; MCF7, 72 h, read-out: IC50 MCF-7, 72 h MTT assay",29.1 ± 1.3 µM
same,IC50,"MCF-7 [1]; MCF7, 72 h, read-out: IC50 of exemestane, MCF-7 (Figure 2a)",42.6 µM
same,IC50,"MCF-7 [1]; MCF7, 120 h, read-out: IC50 of exemestane, MCF-7 (Figure 4a)",16.9 µM
same,IC50,"MCF-7 [1]; MCF7, 120 h, IC50 ± SEM, read-out: IC50 MCF-7, 120 h MTT assay",16.1 ± 0.84 µM
same,"inhibition of cell viability, T47D","T47D [2]; 1 µM alone, 120 h MTT",no
same,"increase in potency by prolongation of incubation time, T47D",T47D [2]; 120 h versus 72 h MTT,1.8 fold
same,IC50,"T47D [2]; 72 h, read-out: IC50 T-47D, 72 h MTT assay",50.6 ± 2.04 µM
same,IC50,"T47D [2]; 72 h, read-out: IC50 of exemestane, T-47D (Figure 2b)",39.2 µM
same,IC50,"T47D [2]; 120 h, read-out: IC50 of exemestane, T-47D (Figure 4b)",24.7 µM
same,IC50,"T47D [2]; 120 h, IC50 ± SEM, read-out: IC50 T-47D, 120 h MTT assay",28.7 ± 0.75 µM
same,less potent in MDA-MB-231 compared to MCF-7,MDA-MB-231; 72 h MTT IC50 ratio,3 fold
same,less potent in MDA-MB-231 compared to T47D,MDA-MB-231; 72 h MTT IC50 ratio,1.8 fold
same,"increase in potency by prolongation of incubation time, MDA-MB-231",MDA-MB-231; 120 h versus 72 h MTT,1.7 fold
same,IC50,"MDA-MB-231; MDA-MB-231, 72 h, read-out: IC50 MDA-MB-231, 72 h MTT assay",89.4 ± 2.86 µM
same,IC50,"MDA-MB-231; MDA-MB-231, 120 h, IC50 ± SEM, read-out: IC50 MDA-MB-231, 120 h MTT assay",53.3 ± 3.62 µM
same,"decrease of the number of nuclei, MCF-7",MCF-7 [3],around 37%
same,"decrease of the number of nuclei, T47D",T47D [4],around 37%
same,"proliferation and doubling time over 10 days, MCF-7",MCF-7 [5],difference between the untreated control and 1 µM exemestane is small
same,"proliferation and doubling time over 10 days, T47D",T47D [6],doubling time was not different between exemestane treatment and untreated condition
same,"caspase 3/7 activation, MCF-7",[7],no caspase 3/7 activation
same,"caspase 3/7 activation, T47D",[8],no caspase 3/7 activation
same,"expression of survivin and c-myk, MCF-7",MCF-7 [9],not affected
same,"expression of survivin and c-myk, T47D",T47D [10],not affected
same,IC50,MCF-7 cells,30 µM
